Assay results taken from the NIST ThermoML archive (doi:10.1021/acs.jced.6b00786).
Numbers after ± are expanded uncertainties.

Assay: xn = mol fraction of the nth substance listed
Settings: 101 kPa, Liquid, Vibrating tube method

A mass density (274.15 K, x1 = 0.00244) of 1001.03 ± 0.044 kg/m3, a mass density (274.15 K, x1 = 0.00515) of 1002.28 ± 0.045 kg/m3 and a mass density (274.15 K, x1 = 0.0086) of 1003.85 ± 0.046 kg/m3 were found for NC=O [formamide] + O in this work. For the same compound, the mass density (274.15 K, x1 = 0.02032) was 1009 ± 0.048 kg/m3, the mass density (274.15 K, x1 = 0.03478) was 1014.99 ± 0.052 kg/m3 and the mass density (274.15 K, x1 = 0.04976) was 1020.81 ± 0.055 kg/m3. It also gave a mass density (274.15 K, x1 = 0.06674) of 1026.93 ± 0.058 kg/m3, a mass density (274.15 K, x1 = 0.08229) of 1032.24 ± 0.061 kg/m3 and a mass density (274.15 K, x1 = 0.1171) of 1043.06 ± 0.071 kg/m3. The mass density (275.15 K, x1 = 0.00244) was 1001.06 ± 0.044 kg/m3, the mass density (275.15 K, x1 = 0.00515) was 1002.29 ± 0.045 kg/m3 and the mass density (275.15 K, x1 = 0.0086) was 1003.84 ± 0.045 kg/m3. The mass density (275.15 K, x1 = 0.02032) was 1008.93 ± 0.048 kg/m3, the mass density (275.15 K, x1 = 0.03478) was 1014.85 ± 0.052 kg/m3 and the mass density (275.15 K, x1 = 0.04976) was 1020.62 ± 0.055 kg/m3. For the same compound, the mass density (275.15 K, x1 = 0.06674) was 1026.67 ± 0.058 kg/m3, the mass density (275.15 K, x1 = 0.08229) was 1031.93 ± 0.061 kg/m3 and the mass density (275.15 K, x1 = 0.1171) was 1042.67 ± 0.07 kg/m3. It also gave a mass density (276.15 K, x1 = 0.00244) of 1001.07 ± 0.044 kg/m3, a mass density (276.15 K, x1 = 0.00515) of 1002.28 ± 0.045 kg/m3 and a mass density (276.15 K, x1 = 0.0086) of 1003.81 ± 0.045 kg/m3. It also gave a mass density (276.15 K, x1 = 0.02032) of 1008.85 ± 0.048 kg/m3, a mass density (276.15 K, x1 = 0.03478) of 1014.7 ± 0.051 kg/m3 and a mass density (276.15 K, x1 = 0.04976) of 1020.4 ± 0.055 kg/m3. It also gave a mass density (276.15 K, x1 = 0.06674) of 1026.42 ± 0.058 kg/m3, a mass density (276.15 K, x1 = 0.08229) of 1031.63 ± 0.061 kg/m3 and a mass density (276.15 K, x1 = 0.1171) of 1042.28 ± 0.07 kg/m3. For the same compound, the mass density (277.15 K, x1 = 0.00244) was 1001.06 ± 0.044 kg/m3, the mass density (277.15 K, x1 = 0.00515) was 1002.26 ± 0.045 kg/m3 and the mass density (277.15 K, x1 = 0.0086) was 1003.77 ± 0.045 kg/m3. It also gave a mass density (277.15 K, x1 = 0.02032) of 1008.75 ± 0.048 kg/m3, a mass density (277.15 K, x1 = 0.03478) of 1014.54 ± 0.051 kg/m3 and a mass density (277.15 K, x1 = 0.04976) of 1020.19 ± 0.055 kg/m3. For the same compound, the mass density (277.15 K, x1 = 0.06674) was 1026.14 ± 0.058 kg/m3, the mass density (277.15 K, x1 = 0.08229) was 1031.3 ± 0.061 kg/m3 and the mass density (277.15 K, x1 = 0.1171) was 1041.88 ± 0.07 kg/m3. The mass density (278.15 K, x1 = 0.00244) was 1001.04 ± 0.044 kg/m3, the mass density (278.15 K, x1 = 0.00515) was 1002.23 ± 0.045 kg/m3 and the mass density (278.15 K, x1 = 0.0086) was 1003.72 ± 0.045 kg/m3. It also gave a mass density (278.15 K, x1 = 0.02032) of 1008.64 ± 0.048 kg/m3, a mass density (278.15 K, x1 = 0.03478) of 1014.37 ± 0.051 kg/m3 and a mass density (278.15 K, x1 = 0.04976) of 1019.96 ± 0.055 kg/m3. The mass density (278.15 K, x1 = 0.06674) was 1025.86 ± 0.058 kg/m3, the mass density (278.15 K, x1 = 0.08229) was 1030.99 ± 0.061 kg/m3 and the mass density (278.15 K, x1 = 0.1171) was 1041.47 ± 0.069 kg/m3. For the same compound, the mass density (278.15 K, x1 = 0.1745) was 1056.3 ± 0.078 kg/m3, the mass density (278.15 K, x1 = 0.2169) was 1065.71 ± 0.085 kg/m3 and the mass density (278.15 K, x1 = 0.2557) was 1073.39 ± 0.09 kg/m3. The mass density (278.15 K, x1 = 0.3026) was 1081.73 ± 0.097 kg/m3, the mass density (278.15 K, x1 = 0.351) was 1089.33 ± 0.1 kg/m3 and the mass density (278.15 K, x1 = 0.4027) was 1096.66 ± 0.11 kg/m3. For the same compound, the mass density (278.15 K, x1 = 0.4487) was 1102.5 ± 0.12 kg/m3, the mass density (278.15 K, x1 = 0.4886) was 1107.05 ± 0.12 kg/m3 and the mass density (278.15 K, x1 = 0.5601) was 1114.6 ± 0.13 kg/m3. The mass density (278.15 K, x1 = 0.5916) was 1117.67 ± 0.14 kg/m3, the mass density (278.15 K, x1 = 0.6674) was 1124.31 ± 0.15 kg/m3 and the mass density (278.15 K, x1 = 0.7066) was 1127.46 ± 0.15 kg/m3. For the same compound, the mass density (278.15 K, x1 = 0.7495) was 1130.64 ± 0.16 kg/m3, the mass density (278.15 K, x1 = 0.7931) was 1133.73 ± 0.17 kg/m3 and the mass density (278.15 K, x1 = 0.8601) was 1138.23 ± 0.17 kg/m3. The mass density (278.15 K, x1 = 0.8996) was 1140.73 ± 0.18 kg/m3, the mass density (278.15 K, x1 = 0.948) was 1143.61 ± 0.19 kg/m3 and the mass density (278.15 K, x1 = 0.9753) was 1145.18 ± 0.19 kg/m3. For the same compound, the mass density (278.15 K, x1 = 0.9847) was 1145.72 ± 0.2 kg/m3, the mass density (278.15 K, x1 = 0.9897) was 1146.01 ± 0.2 kg/m3 and the mass density (278.15 K, x1 = 0.9959) was 1146.38 ± 0.21 kg/m3.
